Key:
[1] = % SPP100 (0-168h) recovered in urine following single oral dose of [14C] aliskiren hemifumarate at 3 mg.Kg-1 level in marmoset; format: ADME, organism-based, Callithrix jacchus; details: in vivo
[2] = Terminal elimination half-life of SPP100 following single oral dose of SPP100 150 mg capsule studied in healthy human; format: ADME, organism-based; details: plasma
[3] = % SPP100 in urine following single oral dose of 300 mg [14C]SPP100 studied in healthy men; format: ADME, organism-based; details: human, in vivo, at 300 mg
CYP2A6 = biological target: T1, CYP2A6 (Homo sapiens, UniProt P11509); assay: Inhibitory activity of 20 uM SPP100 on 39 Pmoles of cDNA-derived CYP2A6 enzyme in microsome prepared from human lymphoblastoid cell line; format: ADME, microsomes; design: conc 20 uM, interact cpd conc 3 uM; details: probe coumarine
T1 sequence (P11509 whole entry): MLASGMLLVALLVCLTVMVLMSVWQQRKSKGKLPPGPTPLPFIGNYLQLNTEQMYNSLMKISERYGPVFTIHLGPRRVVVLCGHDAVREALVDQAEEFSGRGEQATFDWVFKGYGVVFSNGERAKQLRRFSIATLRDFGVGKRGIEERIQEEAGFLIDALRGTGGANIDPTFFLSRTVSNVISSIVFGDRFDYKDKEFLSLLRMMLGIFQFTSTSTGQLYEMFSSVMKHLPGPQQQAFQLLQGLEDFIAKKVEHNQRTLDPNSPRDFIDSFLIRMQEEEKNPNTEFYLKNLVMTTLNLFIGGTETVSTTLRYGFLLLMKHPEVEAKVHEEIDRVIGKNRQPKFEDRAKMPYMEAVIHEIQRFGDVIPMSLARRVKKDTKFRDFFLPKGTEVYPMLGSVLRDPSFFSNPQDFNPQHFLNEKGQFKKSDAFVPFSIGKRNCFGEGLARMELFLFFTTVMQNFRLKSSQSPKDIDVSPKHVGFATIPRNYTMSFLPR

[4] = Excretion (0-168h) of radioactivity in faeces following oral administration of [14C] aliskiren hemifumarate at 3 mg.Kg-1 level in marmoset; format: ADME, organism-based, Callithrix jacchus, Feces; details: in vivo
Cytochrome P450 3A7 = Cytochrome P450 3A7 (Homo sapiens, UniProt P24462); assay: Metabolic clearance (ul.min.nmol-1 CYP) of aliskiren hemifumarate for CYP3A7 was determined in human liver microsome incubated with [14C]SPP100 hemifumarate; format: ADME; details: microsomes
[5] = Excretion (0-24h) of radioactivity in urine following oral administration of [14C] aliskiren hemifumarate at 3 mg.Kg-1 level in marmoset; format: ADME, organism-based, Callithrix jacchus; details: in vivo
[6] = Mean excretion of radioactivity (0-72h) in urine and faeces following single intravenous dose of 10 mg.Kg-1 [14C] aliskiren hemifumarate in mouse; format: ADME, organism-based, TgRasH2, Urine/Feces; details: in vivo
[7] = Cmax/dose (0-96h) of total radioactivity following oral administration of [14C] aliskiren hemifumarate at 100 mg.Kg-1 level in rat; format: ADME, organism-based, Albino HAN:WIST, Plasma; details: in vivo
[8] = Cmax of [14C] aliskiren hemifumarate following single oral dose of [14C] aliskiren hemifumarate at 500 mg.Kg-1 level in mouse; format: ADME, organism-based, TgRasH2, Plasma; details: in vivo
[9] = Excretion (48h) of radioactivity in urine following oral administration of [14C] aliskiren hemifumarate at 100 mg.Kg-1 level in rat; format: ADME, organism-based, Lister-Hooded; details: in vivo
[10] = AUC (0-96 or 0-168h) of total radioactivity following single intravenous administration of [14C] aliskiren hemifumarate at 1 mg.Kg-1 level in marmoset; format: ADME, organism-based, Callithrix jacchus, Plasma; details: in vivo
[11] = Excretion of radioactivity (72-96h) in faeces following single oral dose of 100 mg.Kg-1 [14C] aliskiren hemifumarate in rat; format: ADME, organism-based, Albino HAN:WIST, Feces; details: in vivo
[12] = Excretion of radioactivity (0-24h) in faeces following single intravenous dose of 10 mg.Kg-1 [14C] aliskiren hemifumarate in rat; format: ADME, organism-based, Albino HAN:WIST, Feces; details: in vivo
[13] = Concentration of radioactivity in the colon wall following repeated oral administration of [14C] aliskiren hemifumarate at 100 mg.Kg-1 level studied at 24h after 10th dose in rat; format: ADME, organism-based, Albino HAN:WIST; details: in vivo
[14] = Total excretion (0-72h) of radioactivity in urine, faeces and cage wash following single oral dose of 500 mg.Kg-1 [14C] aliskiren hemifumarate in mouse; format: ADME, organism-based, TgRasH2, Urine/Feces; details: in vivo
[15] = Cmax of radioactivity following repeated oral administration of [14C] aliskiren hemifumarate at 100 mg.Kg-1 level studied after 2h of dosing on day 10 in rat; format: ADME, organism-based, Albino HAN:WIST; details: in vivo, read-out: Cmax(10)
[16] = Excretion of radioactivity (0-96h) in urine following single intravenous dose of 10 mg.Kg-1 [14C] aliskiren hemifumarate in rat; format: ADME, organism-based, Albino HAN:WIST; details: in vivo
[17] = AUC (0-24h) of aliskiren hemifumarate following 4 week oral dietary dosing of aliskiren hemifumarate at 1000 mg.Kg-1 level in female mouse; format: ADME, organism-based; details: CB6F1-TGrasH2, mouse, plasma
[18] = Cmax of aliskiren hemifumarate following repeated oral administration of [14C] aliskiren hemifumarate at 100 mg.Kg-1 level studied after 2h of dosing on day 1 in rat; format: ADME, organism-based, Albino HAN:WIST; details: in vivo, read-out: Cmax(1)
[19] = Cmax/dose (0-96h) of unlabeled aliskiren hemifumarate following intravenous administration of aliskiren hemifumarate at 10 mg.Kg-1 level in rat; format: ADME, organism-based, Albino HAN:WIST, Plasma; details: in vivo
[20] = AUCspec of aliskiren hemifumarate following 2 week oral dosing of aliskiren hemifumarate at 100 mg.Kg-1 level studied on day 14 in male Callithrix jacchus; format: ADME, organism-based, Plasma; details: marmoset, in vivo, 336 h
[21] = Cmax of aliskiren hemifumarate following 2 week oral dosing of aliskiren hemifumarate at 10 mg.Kg-1 level studied on day 14 in female Callithrix jacchus; format: ADME, organism-based; details: marmoset, plasma
[22] = Cmax of aliskiren hemifumarate following 2 week oral dosing of aliskiren hemifumarate at 10 mg.Kg-1 level studied on day 1 in male Callithrix jacchus; format: ADME, organism-based; details: marmoset, plasma
[23] = AUC(0-24h) of aliskiren hemifumarate following 2 week oral dosing of aliskiren hemifumarate at 50 mg.Kg-1 level studied on day 1 in male Callithrix jacchus; format: ADME, organism-based; details: marmoset, plasma
[24] = AUCspec of aliskiren hemifumarate following 2 week oral dosing of aliskiren hemifumarate at 10 mg.Kg-1 level studied on […] in male Callithrix jacchus; format: ADME, organism-based, Plasma; details: marmoset, in vivo, 336 h
[25] = AUC (0-24h)/dose of aliskiren hemifumarate following 4 week oral dietary dosing of aliskiren hemifumarate at 1500 mg.Kg-1 level in female mouse; format: ADME, organism-based, CB6F1-TGrasH2, Plasma; details: in vivo
[26] = Cmin of aliskiren hemifumarate following repeated oral administration of [14C] aliskiren hemifumarate at 100 mg.Kg-1 level studied after first dosing in rat; format: ADME, organism-based, Albino HAN:WIST; details: in vivo
[27] = AUC (0-24h)/dose of aliskiren hemifumarate following 4 week oral dietary dosing of aliskiren hemifumarate at 500 mg.Kg-1 level in female mouse; format: ADME, organism-based, CB6F1-TGrasH2, Plasma; details: in vivo
[28] = Elimination half-life of aliskiren hemifumarate following repeated oral administration of [14C] aliskiren hemifumarate at 100 mg.Kg-1 level studied in rat; format: ADME, organism-based, Albino HAN:WIST; details: in vivo
[29] = AUC (0-24h) of aliskiren hemifumarate following 4 week oral dietary dosing of aliskiren hemifumarate at 500 mg.Kg-1 level in female mouse; format: ADME, organism-based; details: CB6F1-TGrasH2, mouse, plasma
[30] = Cmax of aliskiren hemifumarate following 2 week oral dosing of aliskiren hemifumarate at 10 mg.Kg-1 level studied on day 1 in female Callithrix jacchus; format: ADME, organism-based; details: marmoset, plasma
[31] = AUC (0-96 or 0-168h) of unlabeled aliskiren hemifumarate following single oral administration of aliskiren hemifumarate at 3 mg.Kg-1 level in marmoset; format: ADME, organism-based, Callithrix jacchus; details: plasma

Chain of Cytochrome P450 3A7 (P24462 whole entry): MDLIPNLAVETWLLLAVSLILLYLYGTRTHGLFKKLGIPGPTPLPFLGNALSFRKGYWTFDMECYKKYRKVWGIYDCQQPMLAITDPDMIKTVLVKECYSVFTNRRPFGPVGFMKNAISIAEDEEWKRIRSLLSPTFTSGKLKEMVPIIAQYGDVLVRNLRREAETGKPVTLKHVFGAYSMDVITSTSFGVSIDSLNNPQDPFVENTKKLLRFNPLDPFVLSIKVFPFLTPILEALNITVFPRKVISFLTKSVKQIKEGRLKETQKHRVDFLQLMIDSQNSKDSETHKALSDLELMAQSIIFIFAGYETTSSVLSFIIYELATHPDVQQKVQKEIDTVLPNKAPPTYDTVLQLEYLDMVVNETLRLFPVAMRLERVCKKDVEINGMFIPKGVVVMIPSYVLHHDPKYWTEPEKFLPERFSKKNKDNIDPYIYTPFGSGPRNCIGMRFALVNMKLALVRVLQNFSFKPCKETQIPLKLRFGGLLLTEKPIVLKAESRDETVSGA

## COCCCOc1cc(C[C@@H](C[C@H](N)[C@@H](O)C[C@H](C(=O)NCC(C)(C)C(N)=O)C(C)C)C(C)C)ccc1OC
[1]
  Compound recovery: 2.3%
[2]
  half-life: 41 h
[3]
  Compound recovery: 0.4%
CYP2A6
  inhibition at 20 µM: -2.1%

## COCCCOc1cc(C[C@@H](C[C@H](N)[C@@H](O)C[C@H](C(=O)NCC([14CH3])([14CH3])C(N)=O)C(C)C)C(C)C)ccc1OC.O=C(O)/C=C/C(=O)O
[4]
  Radiolabel recovery: 97.5%
Cytochrome P450 3A7
  CL: 3.5 µL·min/nmol
[5]
  Radiolabel recovery: 2.22%
[6]
  Radiolabel recovery: 93.08%
[7]
  Cmax normalised: 0.0042 (umol/L)/(mg/kg)
[7]; iv, 10 mg/kg
  Cmax normalised: 2.12 (umol/L)/(mg/kg)
[8]
  Cmax: 2170 nM
[9]
  Radiolabel recovery: 0.576%
[10]
  AUC: 52.92 µM·h
[11]
  Radiolabel recovery: 0.17%
[12]
  Radiolabel recovery: 55.7%
[13]
  Radiolabel recovery: OUTCOME = Observed, VALUE = Highest radioactivity concentration was observed
[14]
  Radiolabel recovery: 94.44%
[15]
  Cmax: 473 nM
[16]
  Radiolabel recovery: 94.4%

## COCCCOc1cc(C[C@@H](C[C@H](N)[C@@H](O)C[C@H](C(=O)NCC(C)(C)C(N)=O)C(C)C)C(C)C)ccc1OC.COCCCOc1cc(C[C@@H](C[C@H](N)[C@@H](O)C[C@H](C(=O)NCC(C)(C)C(N)=O)C(C)C)C(C)C)ccc1OC.O=C(O)/C=C/C(=O)O [ALISKIREN FUMARATE]
[17]
  AUC(0-t) at 24 h: 2280 ng·h/mL
[18]
  Cmax: 639 nM
[19]
  Cmax normalised: 2.92 (umol/L)/(mg/kg)
[20]
  AUC normalised: 1.09 ((ug.h.ml-1)/(mg/kg)
[21]
  Cmax: 6730 ng/mL
[22]
  Cmax: 3960 ng/mL
[23]
  AUC(0-t) at 24 h: 58100 ng·h/mL
[24]
  AUC normalised: 3.39 ((ug.h.ml-1)/(mg/kg)
[25]
  AUC normalised: 3.65 ((ng/mL).hours)/(mg/kg/day)
[26]
  Cmin(1): 3.47 nM
[27]
  AUC normalised: 1.71 ((ng/mL).hours)/(mg/kg/day)
[28]
  t1/2: 39.5 h
[29]
  AUC(0-t) at 24 h: 857 ng·h/mL
[30]
  Cmax: 3960 ng/mL
[31]
  AUC at 168 h: 4.55 µM·h
